Structures are written as SMILES.

Assay type in all cases: cell-based, human
The test system of data set [1] is hESC. The experiment in a line: Expansion of single-cell dissociated hESC on feeder cells using protectants in the culture medium. How it is done: Organ culture dishes with various hESC lines (Table 1) were washed once with 1 ml PBS and then dislodged by adding ˜0.2 ml 0.05% trypsin/5 mM EDTA and incubating at 37° C. for 10 mins. After the incubation 1 ml DMEM medium containing 10% FBS was added to inhibit the trypsin, and a single cell suspension was obtained by vigorous pipetting. The cells were counted, pelleted by centrifugation at 250×g for 4 min and resuspended in 5 ml KSR medium containing 20 ng/ml bFGF and 20 μM OPH109, a potent, cell permeable inhibitor of several caspases. The cell suspension was then transferred to a T25 culture flask containing fresh, mitomycin C treated human embryonic fibroblast feeder layer cells and incubated at 37° C., 5% CO2 and 5% O2. The medium was changed after 2 days (and every 2 days thereafter) using KSR medium plus 4 ng/ml bFGF. […] Over the course of 8-10 days these colonies continued growing in size. In contrast, control cultures set up in the same way but without OPH109 in the initial culture medium only contained very few hESC colonies, in concordance with the reported poor viability of hESC after single cell dissociation.
After 8-10 days the cells were harvested by preparing a single cell suspension using trypsin/EDTA as described above. Table 3 list the numbers of cells obtained for various cell lines, indicating a 10-15 fold expansion in a single step. The cells could be used for subsequent experiments or further expansion by plating 10,000 cells/cm^2 into culture vessels with fresh feeder layer cells using KSR medium plus 20 ng/ml bFGF and 20 μM OPH109 as the initial culture medium.
In another experiment, single cell suspensions were prepared from hESC cells grown in organ culture dishes using trypsin/EDTA as described above. Cell were then resuspended in 5 ml KSR medium containing 20 ng/ml bFGF and 2.5 μM blebbistatin, a potent, cell permeable inhibitor of myosin II. The cell suspension was then transferred to a T25 culture flask containing fresh, mitomycin C treated human embryonic fibroblast feeder layer cells and incubated at 37° C., 5% CO2 and 5% O2. The medium was changed after 2 days (and every 2 days thereafter) using KSR medium plus 4 ng/ml bFGF. […] Colonies continued to grow in size and density over 8-10 days until the cultures were passaged again for cell counting (summarised in Table 4) and replating of 2,000-10,000 cells/cm^2 into culture vessels with fresh feeder layer cells using KSR medium plus 20 ng/ml bFGF and 2.5 μM blebbistatin as the initial culture medium. Using this method cells were expanded for >10 passages, while maintaining their pluripotency and normal karyotypes.

Data set [2] has as its system hESC. The experiment in a line: Feeder layer-free monolayer hESC culture on collagen I with protectants/modulators. The following applies: for doubling time: collagen I coating + Y-27632 (10 μM), SIVF019 (FIG. 4). As for the experimental part:
A single cell suspension was prepared similar to Example 4 by first washing a T25 flask with 5 ml PBS followed by trypsinising the cells with 2 ml 0.05% trypsin/5 mM EDTA, incubating at 37° C. for 10 mins and resuspending in 10 ml DMEM medium containing 10% FBS with vigorous pipetting. Cell number and viability was determined using the NucleoCounter and an appropriate number of cells centrifuged at 250×g for 4 mins prior to resuspension in conditioned KSR medium with 20 ng/ml bFGF plus additives. Conditioned KSR medium was produced by incubation of KSR medium on mitomycin-C treated human foetal fibroblasts for 48 hrs prior to harvest and storage at −20° C. As protectants/modulators the following additives were tested: • 1. 10 μM Y-27632 • 2. 20 μM OPH109 • 3. 2.5-10 μM blebbistatin • 4. 20 μM OPH109+2.5-10 μM blebbistatin
Cells were plated in collagen I (Cell Science and Technologies) coated 96 well optical bottom plates (BD) at a density of 2×10^4 cells/cm^2, and incubated at 37° C./5% CO2/5% O2. Media were changed on every 2nd day thereafter. […] This toxic effect could in turn be counteracted by using OPH109 in addition to blebbistatin. After 4-5 days in culture cells were fixed and immunofluorescence stained for the pluripotency markers Oct-3/4, SSEA-4 and Tra-1-81 as well as the early differentiation marker CD29. The cells were imaged and analysed using an IN Cell Analyzer 1000 and IN Cell Developer Toolbox 1.7 software. FIG. 3 summarises the results for 2 cell lines, indicating the ability of protectants/modulators to facilitate feeder-free monolayer culture of undifferentiated hESC. Next, the growth rate of monolayer hESC was assessed by imagining of Hoechst (Invitrogen) stained wells using the IN Cell Analyzer 1000 in 24 hr intervals. Cell number was determined by analysis using IN Cell Developer Toolbox 1.7 and IN Cell Analyzer 1000 Workstation 3.5 software. […] There was no significant difference in cell number or proliferation between uncoated and collagen I coated growth surfaces.

The test system of the next data set is SIVF019 hESC. Description: Feeder free expansion of hESC using monolayer culture. The following applies: SIVF019 (collagenase passaged stock), within 9 days, 3 passages, 10 μM Y-27632 at plating, collagen I. How it is done:
Manually passaged and collagenase passaged hESC lines (Table 1) grown on feeder cells were dissociated into single cells using 0.05% trypsin/5 mM EDTA as described in Example 5. Cells were plated into a collagen I coated plates at ˜2×10^4/cm^2 in Conditioned KSR medium with 20 ng/ml bFGF and 10 μM Y-27632, and incubated at 37° C./5% CO2/5% O2 (passage 1). The medium was changed the following day, then every 2nd day until cells reached ˜80% confluency. Cells were then dissociated into single cells using the 0.05% trypsin/5 mM EDTA protocol, with the exception of incubation with 0.05% trypsin/5 mM EDTA for 3 mins only, counted and plated at ˜2×10^4/cm^2 in the above described medium (passage 2). This process was repeated when cells reached confluency (passage 3). At each of the 3 passages, some of the dissociated cells were plated into 96 well plates for pluripotency assessment as described in Example 6. Within 9 days, the theoretical cell number obtained for SIVF019 (collagenase passaged stock) was 24 fold that originally plated (FIG. 6A). Manually passaged hESC SIVF002, SIVF006 and SIVF021 could also be successfully expanded as a monolayer (FIG. 6B).

The test system of data set [3] is hESC. Description: Expansion of single-cell dissociated hESC on feeder cells using protectants in the culture medium. The note with it: Y27632 as protectant in the culture medium, on feeders.

`CC(C)[C@H](NC(=O)c1ccc2ccccc2n1)C(=O)N[C@@H](CC(=O)O)C(=O)COc1c(F)cccc1F` [OPH109, Quinoline-Val-Asp-Difluorophenoxymethylketone]: the “number of passages cell lines were maintained (typical morphology, pluripotency markers, stable karyotype kept)” value in the data set on hESC [1] (20 μM OPH109 in initial culture medium, 10,000 cells/cm^2) is given as > 10 passages. The expansion per passage in the data set with hESC [1] (20 μM OPH109 in initial culture medium, >10 passages) is given as 10-15 fold. In the data set on hESC [1] (20 μM OPH109 in initial culture medium, control without OPH109 1 out of 10), the “random images (10x objective) in which colonies were observed” value is 6 out of the 10. Further, the “Viable cells after 1 expansion step” value was 1.97 × 10^6 cells in the data set with hESC [1] (SIVF006, 20 μM OPH109, from 1.23 × 10^5 cells in organ culture dish to T25 flask, 8-10 days); 3.1 × 10^6 cells in the data set on hESC [1] (SIVF019, 20 μM OPH109, starting cells not determined, T25 flask, 8-10 days); 3.00 × 10^6 cells in the data set on hESC [1] (SIVF021, 20 μM OPH109, from 2.19 × 10^5 cells in organ culture dish to T25 flask, 8-10 days); 4.40 × 10^6 cells with hESC [1] (SIVF022, 20 μM OPH109, from 3.99 × 10^5 cells in organ culture dish to T25 flask, 8-10 days). Further, the “expansion in a single step” value with hESC [1] (various cell lines, 20 μM OPH109, 8-10 days) was 10-15 fold. Besides, the “cell morphology in feeder-free culture” value in the data set on hESC [2] (20 μM OPH109 by itself, collagen I coated 96 well plates) is reported as “changed to larger cytoplasm/nuclear ratios indicating cell differentiation”.
`C[C@@H](N)[C@H]1CC[C@H](C(=O)Nc2ccncc2)CC1` [Y-27632]: the “cell viability after dissociation into single cell suspensions” value in the data set on hESC [1] (Y27632 as protectant in the culture medium, on feeders) is on record as “dramatically increased cell viability”. For the same compound, the doubling time with hESC [2] (between 24 hrs and 48 hrs post-plating) was found to be 11 h; with hESC [2] (between 48 hrs and 72 hrs post-plating), 17 h. The “theoretical cell number relative to that originally plated” value in the data set on SIVF019 hESC amounted to 24 fold. Also, the “morphology of the colonies” value with hESC [3] is reported as “flat monolayers of small cells with high nuclear to cytoplasmic ratios”.
Regarding `Cc1ccc2c(c1)C(=O)C1(O)CCN(c3ccccc3)C1=N2` (stereo not drawn) [blebbistatin], the “number of passages cells were expanded (pluripotency and normal karyotypes maintained)” value in the data set on hESC [1] (2.5 μM blebbistatin in initial culture medium, 2,000-10,000 cells/cm^2) is reported as > 10 passages. Besides, the “Viable cells after 1 expansion step” value in the data set on hESC [1] (SIVF002, 2.5 μM blebbistatin, from 5.7 × 10^4 cells in organ culture dish to T25 flask) is 1.5 × 10^6 cells; in the data set on hESC [1] (SIVF019 Exp 1, 2.5 μM blebbistatin, from 6.6 × 10^4 cells in organ culture dish) it was 3.4 × 10^6 cells; in the data set with hESC [1] (SIVF019 Exp 2, 2.5 μM blebbistatin, from 2.5 × 10^5 cells in organ culture dish), 2.4 × 10^6 cells; in the data set with hESC [1] (SIVF019 Exp 3, 2.5 μM blebbistatin, from 2.5 × 10^5 cells in organ culture dish) it was 3.4 × 10^6 cells; with hESC [1] (SIVF024, 2.5 μM blebbistatin, from 2.6 × 10^5 cells in organ culture dish), 1.6 × 10^6 cells; with hESC [1] (SIVF048, 2.5 μM blebbistatin, from 2.3 × 10^5 cells in organ culture dish), 2.0 × 10^6 cells. In the data set on hESC [1] (allows lower initial plating densities and greater expansion), the “protectant strength compared with OPH109” value is “more powerful protectant than OPH109”. Moreover, the toxicity entry with hESC [2] (blebbistatin 2.5-10 μM, feeder-free on collagen I) is “increased toxicity at higher concentrations”. Moreover, the “concentration at which most potent as protectant/modulator” value with hESC [2] (tested 2.5-10 μM, feeder-free on collagen I) came to 2.5 µM.

For the origin of these results see patent US20130071927A1, “MEDIA AND METHODS FOR CELL CULTURE” (Sydney IVF Limited, priority 2010, published 2013).
